Consider 2 molecules from US10111896B2, “Composition comprising a combination of DNA methylation inhibitor and a vitamin D receptor agonist for the treatment of drug resistant cancer or for the prevention of tumor relapse” (INSERM (Institut National de la Sante et de la Recherche …, priority 2014, dated 2018).

The test system of assay [1] is U937 cells. The assay is described as follows: Myeloid differentiation, CD11b and CD14 expression by flow cytometry in AML cell lines. It is filed as cell-based, human. The note with it: 5-AZA 5 μM, INEC 10 nM or both, 72 hours. The protocol:
(A) Structural formulas of 1-25 dihydroxyvitamin D3 (VD) and VDR agonist Inecalcitol. http://www.chemblink.com/products/163217-09-2.htm. (B-D) Hypomethylating agents synergize with VDR agonists to promote myeloid differentiation and VDR activity. (B) U937 cells were mock-treated or treated with 5-AZA (5 μM), INEC (10 nM) or both for 72 hours. CD11b and CD14 expression was evaluated by flow cytometry. Results are presented in fold increase compared to vehicle Histograms are mean±SEM (n≥10; *p<0.05, **p<0.01, ***p<0.001). (C) HL60 cells were mock-treated or treated with 5-AZA (5 μM), with Vitamin D (300 nM) or INEC (10 nM) for 16 hours. Granocyte differentiation genes (PRTN3 and NE) and monocyte differentiation genes (TREML2 and SERPINB8) were accessed by qPCR. Results are presented as mean±SEM. (D) U937 cells were mock-treated or treated with 5-AZA (5 μM), INEC (10 nM) or both for 16 hours. VDR activation was evaluated by immunoblot using anti-phospho-VDR specific antibodies. VDR antibodies were used to control protein loading. (E-G) Combined Hypomethylating agents/VDR agonists therapy impairs tumor growth. (E) HL60 cells were mock-treated or treated with 5-AZA (5 μM), with INEC (10 nM) or both for 16 hours. […] (F) Expression of cell cycle regulator genes p15, p21 and p27 was evaluated by qPCR. […] The p-value was determined using the log-rank test. […]
Background: A flow cytometer gives signals particle by particle.

The subject of assay [2] is AML cells. The assay is described as follows: Dose-response studies of AML cells differentiation. Format: cell-based. The following applies: compared with VD.
In assay [3] the test system is U937 cells xenograft. Nature of the assay: Subcutaneous U937 tumor xenograft in athymic Nude mice. It is filed as in vivo, mouse. The note with it: 5-AZA 5 mg/kg i.p. five injections, INEC 20 μg per mice i.p. three times a week, vs control mice. The method, then: (B) U937 cells were mock-treated or treated with 5-AZA (5 μM), INEC (10 nM) or both for 72 hours. CD11b and CD14 expression was evaluated by flow cytometry. […] (C) HL60 cells were mock-treated or treated with 5-AZA (5 μM), with Vitamin D (300 nM) or INEC (10 nM) for 16 hours. Granocyte differentiation genes (PRTN3 and NE) and monocyte differentiation genes (TREML2 and SERPINB8) were accessed by qPCR. Results are presented as mean±SEM. (D) U937 cells were mock-treated or treated with 5-AZA (5 μM), INEC (10 nM) or both for 16 hours. VDR activation was evaluated by immunoblot using anti-phospho-VDR specific antibodies. VDR antibodies were used to control protein loading. […] (E) HL60 cells were mock-treated or treated with 5-AZA (5 μM), with INEC (10 nM) or both for 16 hours. Cell cycle analyses were performed by topro-3 labeling. Results are presented as mean±SEM. […] (F) Expression of cell cycle regulator genes p15, p21 and p27 was evaluated by qPCR. Results are presented as mean±SEM. (G) Kaplan-Meier plot of survival of mice treated with vehicle (PBS), 5-Acytidine (5 mg/kg intraperitoneally three times a week for five injections) and or INEC (20 μg per mice intraperitoneally, three time a week) after subcutaneous xenograft with U937 cells (n=8 tumors in each group). The p-value was determined using the log-rank test.
For tumor establishment, U937 or OCI-AML3 cells as indicated were mixed with Matrigel (BD Biosciences) (1:1, vol/vol) and injected subcutaneously (5×106/flank) into 10-week old female athymic Nude mice (Janvier laboratories, France). The mice were then injected i.p. with 5-Azacytidine (Celgene) (5 mg/kg on day 5, 7, 9, 11 and 13), Inecalcitol (Hybrigenics) (20 μg/day 3 times a week), and the combination of 5-Azacytidine and Inecalcitol or PBS as a vehicle control. The tumor growth was measured as previously described (Lepelletier 2007).

Assay [4] has as its system FLT3-ITD-transformed bone marrow hematopoietic progenitors. The assay is described as follows: Methylcellulose colony-forming and replating assay of FLT3-ITD transformed cells. Format: cell-based, mouse. The protocol:
(A) Inecalcitol decreases clonogenicity of FLT3-ITD of transformed cells. FLT3-ITD-transformed bone marrow hematopoietic progenitors were plated (30.000 cells/condition) in semisolid methylcellulose media containing cytokines (M-3434) containing or not INEC (10 nM) and scored following 7 to 10 days of culture. For re-plating assays 10-30.000 cells were plated (as indicated) in the presence or in the absence of INEC (10 nM) for each condition. Histograms represents numbers of colonies (mean±SEM of three independent experiments). Results are presented as mean±SEM of 4 independent experiments.
Colony formation by transformed or not mouse cells was examined with the use of Methocult medium (MethoCult GF M3434, StemCell Technologies). WT and VDR−/− cells infected were collected from BMT with oncogene or not and transferred to Methocult medium. Colonies were scored one week after plating for determination of the number of colonies. For serial plating cells were collected from methylcellulose, washed once in PBS, counted and replated in Methocult. For some experiments, 10 nM Inecalcitol (hybrigenics) was added to the culture medium.
LIC are a subset of leukemic cells in the bulk leukemia population bearing resistance to chemotherapy and therefore at the origin of relapses. Next we explored the efficacy of VDR agonist therapy in targeting LIC cells. To test this hypothesis we transduced bone marrow precursors from wild-type and VDR−/− mice with the FLT3-ITD construct. Cells were plated in semi-solid cultures containing INEC or vehicle as a control (FIG. 6A). […] To further examine is the INEC effect was reversible we divided 2nd replating INEC-treated cultures in two groups containing INEC or a vehicle.

Assay [5] relates to FLT3-ITD/NPM1 AML blasts. The assay is described as follows: In vitro treatment of FLT3-ITD/NPM1 AML blasts, myeloid differentiation markers. It is filed as cell-based.
Assay [6] relates to FLT3-ITD/NPM1 AML blasts. Nature of the assay: Adoptive transfer of FLT3-ITD/NPM1 AML blasts and bone marrow cells in mice. It is filed as in vivo, mouse. An excerpt: In agreement, biological as well as immunophenotypic markers of leukemia cells were normalized in INEC-treated animals (FIG. 6C).
Assay [7] has as its system β-catenin in OCI-AML3 cells. The assay is described as follows: β-catenin expression by flow cytometry in OCI-AML3 cells. The following applies: INEC 10, 100 or 1000 nM, 48 hours. Format: cell-based, human.
For assay [8], the system named is VDR promoter. The assay is described as follows: VDR promoter methylation analysis (methylation specific PCR) in primary AML samples. It is filed as cell-based, human. The following applies: 5-AZA 1 μM, 96 hours, vs not treated. The protocol: (§1) (A) Schematic representation of the VDR promoter. 5′-CpG-3′ islands present in VDR promoter (region ranging from −1035 to −75+ bp relative to the exon 1a transcriptional start codon) represented by dashes. […] Cell viability was evaluated by ATP assay. Results are presented as mean±SEM (ns not significant, *p<0.05, **p<0.01, ***p<0.001). […] HL60 were mock-treated or treated with 5-AZA (5 μM) or Vitamin D ([…]; as positive control) for 6 hours. (E) VDR or VDR-target genes (CAMP and CYP24A1) expression was evaluated by qPCR. Results are presented as mean±SEM. […] Primary cells (n=3 patients) were mock-treated or treated with 5-AZA (5 μM) or inecalcitol (INEC; […]) or both for 6 hours. VDR or VDR-target genes (CAMP and CYP24A1) expression was evaluated by qPCR. Results are presented as mean±SEM.

Assay [9] concerns VDR promoter. Nature of the assay: Methylation-sensitive high resolution melting (MS-HRM) analysis on THP-1 cells. It is filed as cell-based, human. The following applies: 5-AZA 1 μM, 96 hours. The protocol: as §1
Assay [10] concerns wild-type MLL-ENL transformed cells. The assay is described as follows: Cell viability by ATP assay, wild-type MLL-ENL transformed cells. The following applies: growing concentrations, 72 h. Format: cell-based, mouse. The method, then:
as §1
(§2) Cells were seeded into 96-well plates, and then returned to the 37° C. incubator after the addition of different reactives or vehicle controls DMSO and ethanol if not otherwise stated. Celltiter Glo reagents (Promega) were added after 48 to 96 hours to determine cell viability by measuring ATP levels.

Assay [11] relates to VDR-/- MLL-ENL transformed cells. The assay is described as follows: Cell viability by ATP assay, VDR-/- MLL-ENL transformed cells. It is filed as cell-based, mouse. The note with it: growing concentrations, 72 h. The protocol:
as §1, §2

Assay [12] relates to VDR and VDR targeted genes (CAMP and CYP24A1) in HL60 cells. The following applies: 6 hours. The method, then:
as §1

Assay [13] concerns VDR-target genes (CAMP and CYP24A1) in primary cells from AML patients. Nature of the assay: qPCR of VDR-target genes in leukemic cells from AML patients. It is filed as cell-based, human. The following applies: primary cells from AML patients (n=3); 5-AZA 5 μM, 6 hours. The method, then: as §1
Background: In qPCR the cycle at which signal appears reflects the starting amount.

Consider `C[C@H](CC#CC(C)(C)O)[C@H]1CC[C@@H]2/C(=C/C=C3C[C@@H](O)C[C@H](O)C3)CCC[C@@]21C` [INEC, 19-nor-14-epi-23-yne-1,25-(OH)2D3], for which the “increase in myeloid differentiation (CD11b and CD14 expression), fold increase compared to vehicle” value in assay [1] came to 4.5 fold. Besides, the “effectiveness to promote AML cells differentiation relative to VD” value in assay [2] came to 1000 fold. In assay [3], the “survival of xenografted mice” value is “did not observe a significant effect” and the “tumor size / tumor growth” value is recorded as “did not observe a significant effect”. In addition, the “CFC after INEC wash-out” value in [4] (2nd replating INEC-treated cultures switched to vehicle) is listed as “reestablished CFC”. For the same molecule, the “decrease in clonogenic potential compared to vehicle-treated cells” value in [4] (INEC 10 nM in methylcellulose, first plating) worked out at 5 fold. For the same molecule, in [4] (INEC 10 nM, serial replating), the “colonies at the 4th round of plating” value is recorded as “virtually no colonies”. Also, the “expression of myeloid differentiation markers” value in assay [5] is reported as “increased expression”. In addition, in assay [6] (in comparison to mock-treated animals), the “leukemia development after passive transfer of BM cells from treated animals” value is “strongly delayed leukemia development”. Moreover, in assay [6] (mouse, in vivo), the “biological and immunophenotypic markers of leukemia cells in treated animals” value is reported as “normalized”; the “leukemia development in mice adoptively transferred with treated cells” value was “not able to develop leukemia”. In addition, in assay [7], the “β-catenin pathway / expression” value is reported as “inhibits β-cathenin pathway”.
Regarding `Nc1ncn([C@@H]2O[C@H](CO)[C@@H](O)[C@H]2O)c(=O)n1` [5-AZA, 5-azacytidine], in assay [8], the VDR promoter methylation entry is “decrease in methylation”. Also, in [9], the “VDR promoter methylation (MS-HRM)” value is on record as “revert VDR promoter methylation”. Further, in [10], the “cell sensitivity (viability)” value is on record as “sensitive”. For the same molecule, in assay [11], the cell survival entry is recorded as “not altered”. Also, in assay [12] (5-AZA 5 μM or Vitamin D 1000 μM), the “expression of VDR targeted genes (CAMP and CYP24A1)” value was “induced the expression”. Further, in assay [12] (5-AZA 5 μM), the “VDR expression, fold increase” value was 2 fold. For the same molecule, the VDR-target genes expression entry in [13] is “induces VDR-target genes expression”. The “increase in myeloid differentiation (CD11b and CD14 expression), fold increase compared to vehicle” value in assay [1] was 1.3 fold. In [3], the “survival of xenografted mice” value was “did not observe a significant effect” and the “tumor size / tumor growth” value is on record as “did not observe a significant effect”.
